Assay results published in US20040254246A1, “Treating or preventing hot flashes using prodrugs of GABA analogs” (priority 2003, published 2004).

Assays:
[1] = Drug release from sustained release oral osmotic dosage form in artificial gastric fluid; format: physicochemical; settings: osmotic sustained release dosage form of Section 5.2 (700 mg drug composition), one 10 mil passageway
Procedure: A sustained release oral osmotic delivery dosage form containing the gabapentin prodrug 1-{[(α-isobutanoyloxyethoxy)carbonyl]aminomethyl}-1-cyclohexane acetic acid is prepared following methods described in Ayer et al., U.S. Pat. No. 5,707,663. Accordingly, 660 grams of 1-{[α-isobutanoyloxyethoxy)carbonyl]aminomethyl}-1-cyclohexane acetic acid and 30 grams of pharmaceutical acceptable poly(ethylene oxide), 5,000,000 molecular weight, is added to the bowl of a fluid bed granulator. The microencapsulation process is computerized and atomized in cycles. The process is initiated by first fluidizing the dry drug and the polymer powder for 3 minutes and the blended granules are microencapsulated with aqueous hydroxypropylmethylcellulose solution. The polymer solution is prepared by dissolving 35 grams of hydroxypropylmethylcellulose comprising 11,200 molecular weight in 400 grams of water. […]
The osmotic displacement-push composition is then prepared as follows: first, 3.7 kg of sodium chloride and 150 grams of red ferric oxide are separately screened through an 8 mesh screen using a Quadro comil. […] The conditions monitored during the process are as follows: solution spray rate of 400 g/min (3 nozzles are used); inlet temperature 45° C.; outlet temperature 24° C. and process air flow of 1,500 ft^3/minute. […]

[2] = test system: hot flashes in postmenopausal women; test: Open label clinical study of hot flash frequency and severity, osmotic sustained release capsules; format: in vivo, human; settings: osmotic sustained release capsules 700 mg, two capsules twice daily (2800 mg/day), oral, two weeks
Excerpt: Twenty postmenopausal women who have been experiencing hot flashes (an average of at least 6 per day, range 6-20 per day) over the past 12 months and who have not been treated with hormone therapy (i.e., no estrogen, progestin, tamoxifen or leuprolide therapy) over the past 2 months are recruited to an open label clinical study on the effect of administration of gabapentin prodrugs on the frequency and severity of hot flash symptoms. After a two week baseline screening assessment, the prodrug 1-{[(α-isobutanoyloxyethoxy)carbonyl]aminomethyl}-1-cyclohexane acetic acid, formulated as osmotic sustained release capsules containing 700 mg drug (preparation of the sustained release capsules is described in Section 5.2 above), is administered in two capsules twice daily (2800 mg/day, equal to ˜1400 mg gabapentin equivalents/day) for two weeks. Each patient records the frequency and severity of hot flashes in a diary following the protocol of Guttuso et al., Obstet. Gynecol 2003, 101, 337-345. Daily hot flash frequency is calculated by totaling the number of hot flashes per week and dividing by the number of days in the week for which data is recorded. The primary outcome measure is the percentage change in hot flash frequency from baseline to the end of treatment week two.

[3] = test system: hot flashes in postmenopausal women; test: Open label clinical study of hot flash frequency and severity, immediate release capsules; format: in vivo, human; settings: immediate release 300 mg capsules, two capsules three times daily (1800 mg/day), oral, two weeks
Excerpt: Twenty postmenopausal women who have been experiencing hot flashes (an average of at least 6 per day, range 6-20 per day) over the past 12 months and who have not been treated with hormone therapy (i.e., no estrogen, progestin, tamoxifen or leuprolide therapy) over the past 2 months are recruited to an open label clinical study on the effect of administration of a gabapentin prodrug on the frequency and severity of hot flash symptoms. After a two week baseline screening assessment, the prodrug 1-{[(α-isobutanoyloxyethoxy)carbonyl]aminomethyl}-1-cyclohexane acetic acid (synthesized as described by Gallop et al., International Publication No. WO 02/100347), formulated as an immediate release dosage form in 300 mg capsules, is administered in two capsules three times daily (1800 mg/day, equal to ˜900 mg gabapentin equivalents/day) for two weeks. Each patient records the frequency and severity of hot flashes in a diary following the protocol of Guttuso et al., Obstet. Gynecol. 2003, 101, 337-345. Daily hot flash frequency is calculated by totaling the number of hot flashes per week and dividing by the number of days in the week for which data is recorded. The primary outcome measure is the percentage change in hot flash frequency from baseline to the end of treatment week two. […]

[4] = test system: hot flashes in postmenopausal women; settings: 59 postmenopausal women, double-blind placebo controlled trial; cited from earlier work

Row | Structure (SMILES) | release rate [1] [mg/h] | decrease in mean hot flash intensity from baseline [2] | decrease in mean hot flash intensity from baseline [3] | reduction in hot flash frequency from baseline [4]
1 | CC(OC(=O)NCC1(CC(=O)O)CCCCC1)OC(=O)C(C)C (stereo not drawn) [1-{[(α-isobutanoyloxyethoxy)carbonyl]aminomethyl}-1-cyclohexane acetic acid] | > 20 | more than 35% | more than 35% | –
2 | NCC1(CC(=O)O)CCCCC1 [gabapentin, 1-Aminomethyl-1-cyclohexane acetic acid] | – | – | – | substantial reduction in hot flash frequency from baseline
